Laboratory results: patent publication US8344000B2, “Compounds which have activity at M1 receptor and their uses in medicine” (Glaxo Group Limited, priority 2007, dated 2013)

Molecular target: T1, human muscarinic M1 receptors (Homo sapiens, UniProt P11229)
T1 construct: expressed in transfected cells
T1 sequence (P11229 1-460): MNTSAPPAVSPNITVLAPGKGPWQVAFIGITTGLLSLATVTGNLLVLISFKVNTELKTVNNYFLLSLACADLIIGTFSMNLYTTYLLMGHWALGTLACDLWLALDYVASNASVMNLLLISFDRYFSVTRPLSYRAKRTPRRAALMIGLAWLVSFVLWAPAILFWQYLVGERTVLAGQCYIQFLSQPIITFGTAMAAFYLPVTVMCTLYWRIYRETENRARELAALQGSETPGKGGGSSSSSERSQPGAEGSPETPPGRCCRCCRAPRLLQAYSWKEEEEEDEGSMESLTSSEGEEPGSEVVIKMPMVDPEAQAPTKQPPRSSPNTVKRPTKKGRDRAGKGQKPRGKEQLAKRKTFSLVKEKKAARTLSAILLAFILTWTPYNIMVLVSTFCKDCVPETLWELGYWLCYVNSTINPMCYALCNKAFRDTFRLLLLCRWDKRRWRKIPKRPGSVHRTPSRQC
Assay: FLIPR experiments on M1 receptors (calcium response, CHO-M1 cells)
Type: cell-based
Conditions: tested for activity; assay and threshold not specified at the place
Description: FLIPR Experiments on M1 Receptors to Determine Agonist/Antagonist Potency
Compounds of the invention were characterized in a functional assay to determine their ability to activate the intracellular calcium pathway in CHO cells with stable expression of human muscarinic M1 receptors using FLIPR (Fluorometric Imaging Plate Reader) technology. Briefly, CHO-M1 cells were plated (15,000/well) and allowed to grow overnight at 37 degrees. Media were removed and 30 μL loading buffer (HBSS with 2.5 mM probenicid, 2 μM Fluo-4, 500 μM Brilliant Black, pH 7.4) was added. After incubation at 37 degrees for 90 minutes, 10 μL of the assay buffer (HBSS with 2.5 mM probenecid, pH 7.4) containing test compounds was added to each well on the FLIPR instrument. Calcium response was monitored to determine agonism. […] Calcium response was then monitored again to determine compound's antagonism to acetylcholine. […] Results were imported into ActivityBase data analysis suite (ID Business Solution Inc., Parsippany, N.J.) where the curves were analysed by non-linear curve fitting and the resulting pEC50/fpKi were calculated. The maximum asymptotes of agonist compounds were calculated as percentage of maximum FLIPR response induced by carbamoylcholine chloride added as control on the same compound plates.

SMILES: Cl.O=C1Cc2ccccc2N1C1CCN(C2CCOCC2)CC1 [1-[1-(Tetrahydro-2H-pyran-4-yl)-4-piperidinyl]-1,3-dihydro-2H-indol-2-one hydrochloride]
- activity: below the threshold value
